In patent publication US20230271941A1, “COMPOUNDS AND COMPOSITIONS FOR TREATING CONDITIONS ASSOCIATED WITH STING ACTIVITY” (IFM Due, Inc., priority 2020, published 2023):

target: T1, hSTING (Homo sapiens, UniProt Q86WV6, G230A/H232R/R293Q/R71H); assay: STING reporter assay: THP1-Dual KO-IFNAR2 cells stimulated with 2′3′cGAMP, luciferase reporter activity; type: cell-based; details: 15 μM 2′3′cGAMP transfected with Lipofectamine 2000, 24 h, luciferase reporter (QUANTI-Luc)
T1 construct: host or cells: THP1-Dual KO-IFNAR2 cells
Description: STING pathway activation by the compounds described herein was measured using THP1-Dual™ cells (KO-IFNAR2).
THP1-Dual™ KO-IFNAR2 Cells (obtained from invivogen) were maintained in RPMI, 10% FCS, 5 ml P/S, 2 mM L-glut, 10 mM Hepes, and 1 mM sodium pyruvate. Compounds were spotted in empty 384 well tissue culture plates (Greiner 781182) by Echo for a final concentration of 0.0017-100 μM. Cells were plated into the TC plates at 40 μL per well, 2×10E6 cells/mL. For activation with STING ligand, 2′3′cGAMP (MW 718.38, obtained from Invivogen), was prepared in Optimem media.
The following solutions were prepared for each 1×384 plate: • Solution A: 2 mL Optimem with one of the following stimuli: • 60 μL of 10 mM 2′3′cGAMP→150 μM stock • Solution B: 2 mL Optimem with 60 μL Lipofectamine 2000→Incubate 5 min at RT
2 mL of solution A and 2 ml Solution B was mixed and incubated for 20 min at room temperature (RT). 20 μL of transfection solution (A+B) was added on top of the plated cells, with a final 2′3′cGAMP concentration of 15 μM. The plates were then centrifuged immediately at 340 g for 1 minute, after which they were incubated at 37° C., 5% CO2, >98% humidity for 24 h. Luciferase reporter activity was then measured. EC50 values were calculated by using standard methods known in the art.
Luciferase reporter assay: 10 μL of supernatant from the assay was transferred to white 384-plate with flat bottom and squared wells. One pouch of QUANTI-Luc™ Plus was dissolved in 25 mL of water. 100 μL of QLC Stabilizer per 25 mL of QUANTI-Luc™Plus solution was added. 50 μL of QUANTI-Luc™ Plus/QLC solution per well was then added. Luminescence was measured on a Platereader (e.g., Spectramax I3X (Molecular Devices GF3637001)).
Luciferase reporter activity was then measured. EC50 values were calculated by using standard methods known in the art.

T1 sequence (Q86WV6 whole entry R71H/G230A/H232R/R293Q): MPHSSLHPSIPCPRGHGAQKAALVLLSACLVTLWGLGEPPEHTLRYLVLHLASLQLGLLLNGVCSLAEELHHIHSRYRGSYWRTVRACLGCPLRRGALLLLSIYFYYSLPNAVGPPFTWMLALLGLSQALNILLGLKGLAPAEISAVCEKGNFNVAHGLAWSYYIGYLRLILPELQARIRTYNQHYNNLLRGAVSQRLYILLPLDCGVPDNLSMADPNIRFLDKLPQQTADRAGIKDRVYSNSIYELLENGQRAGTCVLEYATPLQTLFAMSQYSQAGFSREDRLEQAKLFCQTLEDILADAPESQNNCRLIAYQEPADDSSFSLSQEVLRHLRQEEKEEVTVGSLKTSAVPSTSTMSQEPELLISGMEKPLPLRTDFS

First: O=C(Nc1c[nH]c2cc(F)c(Cl)cc12)c1cnn(Cc2ccc(C(F)(F)F)cc2)c1 [Compound 141, N-(5-chloro-6-fluoro-1H-indol-3-yl)-1-(4-(trifluoromethyl)benzyl)-1H-pyrazole-4-carboxamide]
Second: O=C(Nc1c[nH]c2cc(Cl)ccc12)c1cnn(Cc2ccc(C(F)(F)F)cc2)c1 [Compound 102, N-(6-chloro-1H-indol-3-yl)-1-[[4-(trifluoromethyl)phenyl]methyl]pyrazole-4-carboxamide]
The EC50 of the first is lower: 40 to 200 nM for the first, 200 to 1000 nM for the second. The first is the more potent here.

`CC(c1ccc(C(F)(F)F)cc1)n1cc(C(=O)Nc2c[nH]c3cc(F)c(F)cc23)cn1` (single isomer, unassigned) [Compound 120, (R or S)-N-(5,6-difluoro-1H-indol-3-yl)-1-(1-(4-(trifluoromethyl)phenyl)ethyl)-1H-pyrazole-4-carboxamide] and `O=C(Nc1c[nH]c2cc(F)c(F)cc12)c1cn(Cc2ccc(C(F)(F)F)cc2)nn1` [Compound 105, N-(5,6-difluoro-1H-indol-3-yl)-1-(4-(trifluoromethyl)benzyl)-1H-1,2,3-triazole-4-carboxamide] fall in the same range of EC50: 200 to 1000 nM for the first, 200 to 1000 nM for the second.

`O=C(Nc1c[nH]c2cc(F)c(Cl)cc12)c1cn(Cc2ccc(C(F)(F)F)cc2)nn1` [Compound 168, N-(5-chloro-6-fluoro-1H-indol-3-yl)-1-(4-(trifluoromethyl)benzyl)-1H-1,2,3-triazole-4-carboxamide] and `O=C(Nc1c[nH]c2cc(F)c(F)cc12)c1cc(Cc2ccc(C(F)(F)F)cc2)on1` [Compound 153, N-(5,6-difluoro-1H-indol-3-yl)-5-(4-(trifluoromethyl)benzyl)isoxazole-3-carboxamide] fall in the same range of EC50: 200 to 1000 nM for the first, 200 to 1000 nM for the second.

`O=C(Nc1c[nH]c2cc(F)c(F)cc12)c1csc(Cc2ccccc2)n1` [Compound 112, 2-benzyl-N-(5,6-difluoro-1H-indol-3-yl)-1,3-thiazole-4-carboxamide] and `O=C(Nc1c[nH]c2cc(F)c(F)cc12)c1csc(-c2ccccc2)n1` [Compound 111, N-(5,6-difluoro-1H-indol-3-yl)-2-phenyl-1,3-thiazole-4-carboxamide] fall in the same range of EC50: 1000 to 5000 nM for the first, 1000 to 5000 nM for the second.

First: O=C(Nc1c[nH]c2cc(F)c(F)cc12)c1cc(Cc2ccc(C(F)(F)F)cc2)no1 [Compound 151, N-(5,6-difluoro-1H-indol-3-yl)-3-(4-(trifluoromethyl)benzyl)isoxazole-5-carboxamide]
Second: O=C(Nc1c[nH]c2cc(F)c(F)cc12)c1cc(CCc2ccc(C(F)(F)F)cc2)no1 [Compound 150, N-(5,6-difluoro-1H-indol-3-yl)-3-(4-(trifluoromethyl)phenethyl)isoxazole-5-carboxamide]
The EC50 of the first is higher: 200 to 1000 nM for the first, 40 to 200 nM for the second. The second is the more potent here.

First: Cc1cc(Cn2cc(C(=O)Nc3c[nH]c4ccc(Cl)cc34)cn2)cnc1OCC(F)(F)F [Compound 160, N-(5-chloro-1H-indol-3-yl)-1-((5-methyl-6-(2,2,2-trifluoroethoxy)pyridin-3-yl)methyl)-1H-pyrazole-4-carboxamide]
Second: COc1cc2[nH]cc(NC(=O)c3cnn(Cc4ccc(C(F)(F)F)cc4)c3)c2cn1 [Compound 126, N-(6-methoxy-1H-pyrrolo[3,2-c]pyridin-3-yl)-1-(4-(trifluoromethyl)benzyl)-1H-pyrazole-4-carboxamide]
The EC50 of the first is lower: 40 to 200 nM for the first, 1000 to 5000 nM for the second. The first is the more potent here.

First: Cc1cncc2c(NC(=O)c3cnn(Cc4ccc(C(F)(F)F)cc4)c3)c[nH]c12 [Compound 125, N-(7-methyl-1H-pyrrolo[3,2-c]pyridin-3-yl)-1-(4-(trifluoromethyl)benzyl)-1H-pyrazole-4-carboxamide]
Second: O=C(Nc1c[nH]c2cnccc12)c1cnn(Cc2ccc(C(F)(F)F)cc2)c1 [Compound 144]
The EC50 of the first is lower: 1000 to 5000 nM for the first, 5000 to 100000 nM for the second.

`O=C(Nc1c[nH]c2cc(F)c(F)cc12)c1cc(-c2ccc(Cl)cc2)no1` [Compound 171, 3-(4-chlorophenyl)-N-(5,6-difluoro-1H-indol-3-yl)isoxazole-5-carboxamide] and `O=C(Nc1c[nH]c2cc(F)c(F)cc12)c1cc(-c2ccccn2)on1` [Compound 109, N-(5,6-difluoro-1H-indol-3-yl)-5-(pyridin-2-yl)-1,2-oxazole-3-carboxamide] fall in the same range of EC50: 200 to 1000 nM for the first, 200 to 1000 nM for the second.

`O=C(Nc1c[nH]c2cc(F)c(F)cc12)c1cc(-c2cc(F)cc(F)c2)[nH]n1` [Compound 173, N-(5,6-difluoro-1H-indol-3-yl)-5-(3,5-difluorophenyl)-1H-pyrazole-3-carboxamide] and `N#Cc1cccc(-c2cc(C(=O)Nc3c[nH]c4cc(F)c(F)cc34)no2)c1` [Compound 123, 5-(3-cyanophenyl)-N-(5,6-difluoro-1H-indol-3-yl)isoxazole-3-carboxamide] fall in the same range of EC50: 200 to 1000 nM for the first, 200 to 1000 nM for the second.

`CC(C)(O)CCc1ncc(-n2cc(C(=O)Nc3c[nH]c4cc(F)c(F)cc34)nn2)cc1F` [Compound 179, N-(5,6-difluoro-1H-indol-3-yl)-1-[5-fluoro-6-(3-hydroxy-3-methylbutyl)pyridin-3-yl]-1H-1,2,3-triazole-4-carboxamide] and `O=C(Nc1c[nH]c2ccccc12)c1cn(-c2cnc(OCC(F)(F)F)c(F)c2)nn1` [Compound 157, 1-(5-fluoro-6-(2,2,2-trifluoroethoxy)pyridin-3-yl)-N-(1H-indol-3-yl)-1H-1,2,3-triazole-4-carboxamide] fall in the same range of EC50: 5000 to 100000 nM for the first, 5000 to 100000 nM for the second.

First: O=C(Nc1c[nH]c2cc(F)c(F)cc12)c1cnn(CC2CCC(F)(F)CC2)c1 [Compound 122, N-(5,6-difluoro-1H-indol-3-yl)-1-((4,4-difluorocyclohexyl)methyl)-1H-pyrazole-4-carboxamide]
Second: Cc1cc(C(=O)Nc2c[nH]c3cc(F)c(F)cc23)nn1C1CCCCC1 [Compound 140, 1-cyclohexyl-N-(5,6-difluoro-1H-indol-3-yl)-5-methyl-1H-pyrazole-3-carboxamide]
The EC50 of the first is lower: 200 to 1000 nM for the first, 5000 to 100000 nM for the second.

First: O=C(Nc1c[nH]c2cc(F)c(F)cc12)c1ccn(CCOc2cccnc2)n1 [Compound 147, N-(5,6-difluoro-1H-indol-3-yl)-1-(2-(pyridin-3-yloxy)ethyl)-1H-pyrazole-3-carboxamide]
Second: O=C(Nc1c[nH]c2c(F)cncc12)c1ccn(Cc2ccc(C(F)(F)F)cc2)n1 [Compound 131, N-(7-fluoro-1H-pyrrolo[3,2-c]pyridin-3-yl)-1-(4-(trifluoromethyl)benzyl)-1H-pyrazole-3-carboxamide]
The EC50 of the first is higher: 5000 to 100000 nM for the first, 1000 to 5000 nM for the second. The second is the more potent here.

First: O=C(Nc1c[nH]c2cc(F)c(F)cc12)c1cc(CC2CCN(CC(F)(F)F)CC2)on1 [Compound 152, N-(5,6-difluoro-1H-indol-3-yl)-5-((1-(2,2,2-trifluoroethyl)piperidin-4-yl)methyl)isoxazole-3-carboxamide]
Second: CC(C)(C)OC(=O)N1CCC(n2cc(C(=O)Nc3c[nH]c4cc(F)c(F)cc34)nn2)CC1 [Compound 169, tert-butyl 4-(4-((5,6-difluoro-1H-indol-3-yl)carbamoyl)-1H-1,2,3-triazol-1-yl)piperidine-1-carboxylate]
The EC50 of the first is lower: 200 to 1000 nM for the first, 1000 to 5000 nM for the second. The first is the more potent here.

`O=C(Nc1c[nH]c2ccccc12)c1ncc(-c2ccc(C(F)(F)F)cc2)[nH]1` [Compound 129, N-(1H-indol-3-yl)-5-(4-(trifluoromethyl)phenyl)-1H-imidazole-2-carboxamide] and `O=C(Nc1c[nH]c2ccccc12)c1cn(-c2ccc(C(F)(F)F)c(Cl)c2)cn1` [Compound 135, 1-(3-chloro-4-(trifluoromethyl)phenyl)-N-(1H-indol-3-yl)-1H-imidazole-4-carboxamide] fall in the same range of EC50: 200 to 1000 nM for the first, 200 to 1000 nM for the second.

Compared with `COc1ccc2[nH]cc(NC(=O)c3cnn(Cc4ccc(C(F)(F)F)cc4)c3)c2n1` [Compound 118, N-(5-methoxy-1H-pyrrolo[3,2-b]pyridin-3-yl)-1-(4-(trifluoromethyl)benzyl)-1H-pyrazole-4-carboxamide], `CC(C)n1cc(-c2cc(F)c3[nH]cc(NC(=O)c4cnn(Cc5ccc(C(F)(F)F)cc5)c4)c3c2)cn1` [Compound 146, N-(7-fluoro-5-(1-isopropyl-1H-pyrazol-4-yl)-1H-indol-3-yl)-1-(4-(trifluoromethyl)benzyl)-1H-pyrazole-4-carboxamide] is lower in EC50: 1000 to 5000 nM for the first, 200 to 1000 nM for the second.

`CC(C)n1cc(-c2ccc3[nH]cc(NC(=O)c4cn(Cc5ccc(C(F)(F)F)cc5)cn4)c3c2)cn1` [Compound 138, N-(5-(1-isopropyl-1H-pyrazol-4-yl)-1H-indol-3-yl)-1-(4-(trifluoromethyl)benzyl)-1H-imidazole-4-carboxamide] and `CC(C)n1cc(-c2ccc3[nH]cc(NC(=O)c4ccn(Cc5ccc(C(F)(F)F)cc5)n4)c3c2)cn1` [Compound 133, N-(5-(1-isopropyl-1H-pyrazol-4-yl)-1H-indol-3-yl)-1-(4-(trifluoromethyl)benzyl)-1H-pyrazole-3-carboxamide] fall in the same range of EC50: 200 to 1000 nM for the first, 200 to 1000 nM for the second.

In the case of `O=C(Nc1c[nH]c2ccccc12)c1cn(Cc2ccc(C(F)(F)F)c(Cl)c2)cn1` [Compound 136, 1-(3-chloro-4-(trifluoromethyl)benzyl)-N-(1H-indol-3-yl)-1H-imidazole-4-carboxamide], the EC50 is reported as 200 to 1000 nM.
